Test results as given in PMC8048960 (Chemmedchem, 2020).
Peptide text beside a SMILES is read from it. * marks the point of attachment. Cbz = O=C(OCc1ccccc1)*

What was measured:
[1] = tested on: kinome; details: kinases hit out of panel of 187; cited from earlier work
[2] = target: purified full‐length Strep flag LRRK2 (Homo sapiens, UniProt Q5S007); assay: In vitro radioactive kinase assay; assay type: biochemical
[3] = cited from earlier work
[4] = target: LRRK2; details: read-out: Ki in the biochemical assay; cited from earlier work
[5] = target: GFP‐tagged LRRK2 in transfected HEK293 cells (Homo sapiens, UniProt Q5S007); assay: Ubiquitin assay; assay type: cell-based; details: 24 h; for LRRK2 ubiquitination (ubiquitin signal): 10 µM, with or without 5 µM MG132, compared to DMSO
Chain of GFP‐tagged LRRK2 in transfected HEK293 cells (Q5S007 whole entry): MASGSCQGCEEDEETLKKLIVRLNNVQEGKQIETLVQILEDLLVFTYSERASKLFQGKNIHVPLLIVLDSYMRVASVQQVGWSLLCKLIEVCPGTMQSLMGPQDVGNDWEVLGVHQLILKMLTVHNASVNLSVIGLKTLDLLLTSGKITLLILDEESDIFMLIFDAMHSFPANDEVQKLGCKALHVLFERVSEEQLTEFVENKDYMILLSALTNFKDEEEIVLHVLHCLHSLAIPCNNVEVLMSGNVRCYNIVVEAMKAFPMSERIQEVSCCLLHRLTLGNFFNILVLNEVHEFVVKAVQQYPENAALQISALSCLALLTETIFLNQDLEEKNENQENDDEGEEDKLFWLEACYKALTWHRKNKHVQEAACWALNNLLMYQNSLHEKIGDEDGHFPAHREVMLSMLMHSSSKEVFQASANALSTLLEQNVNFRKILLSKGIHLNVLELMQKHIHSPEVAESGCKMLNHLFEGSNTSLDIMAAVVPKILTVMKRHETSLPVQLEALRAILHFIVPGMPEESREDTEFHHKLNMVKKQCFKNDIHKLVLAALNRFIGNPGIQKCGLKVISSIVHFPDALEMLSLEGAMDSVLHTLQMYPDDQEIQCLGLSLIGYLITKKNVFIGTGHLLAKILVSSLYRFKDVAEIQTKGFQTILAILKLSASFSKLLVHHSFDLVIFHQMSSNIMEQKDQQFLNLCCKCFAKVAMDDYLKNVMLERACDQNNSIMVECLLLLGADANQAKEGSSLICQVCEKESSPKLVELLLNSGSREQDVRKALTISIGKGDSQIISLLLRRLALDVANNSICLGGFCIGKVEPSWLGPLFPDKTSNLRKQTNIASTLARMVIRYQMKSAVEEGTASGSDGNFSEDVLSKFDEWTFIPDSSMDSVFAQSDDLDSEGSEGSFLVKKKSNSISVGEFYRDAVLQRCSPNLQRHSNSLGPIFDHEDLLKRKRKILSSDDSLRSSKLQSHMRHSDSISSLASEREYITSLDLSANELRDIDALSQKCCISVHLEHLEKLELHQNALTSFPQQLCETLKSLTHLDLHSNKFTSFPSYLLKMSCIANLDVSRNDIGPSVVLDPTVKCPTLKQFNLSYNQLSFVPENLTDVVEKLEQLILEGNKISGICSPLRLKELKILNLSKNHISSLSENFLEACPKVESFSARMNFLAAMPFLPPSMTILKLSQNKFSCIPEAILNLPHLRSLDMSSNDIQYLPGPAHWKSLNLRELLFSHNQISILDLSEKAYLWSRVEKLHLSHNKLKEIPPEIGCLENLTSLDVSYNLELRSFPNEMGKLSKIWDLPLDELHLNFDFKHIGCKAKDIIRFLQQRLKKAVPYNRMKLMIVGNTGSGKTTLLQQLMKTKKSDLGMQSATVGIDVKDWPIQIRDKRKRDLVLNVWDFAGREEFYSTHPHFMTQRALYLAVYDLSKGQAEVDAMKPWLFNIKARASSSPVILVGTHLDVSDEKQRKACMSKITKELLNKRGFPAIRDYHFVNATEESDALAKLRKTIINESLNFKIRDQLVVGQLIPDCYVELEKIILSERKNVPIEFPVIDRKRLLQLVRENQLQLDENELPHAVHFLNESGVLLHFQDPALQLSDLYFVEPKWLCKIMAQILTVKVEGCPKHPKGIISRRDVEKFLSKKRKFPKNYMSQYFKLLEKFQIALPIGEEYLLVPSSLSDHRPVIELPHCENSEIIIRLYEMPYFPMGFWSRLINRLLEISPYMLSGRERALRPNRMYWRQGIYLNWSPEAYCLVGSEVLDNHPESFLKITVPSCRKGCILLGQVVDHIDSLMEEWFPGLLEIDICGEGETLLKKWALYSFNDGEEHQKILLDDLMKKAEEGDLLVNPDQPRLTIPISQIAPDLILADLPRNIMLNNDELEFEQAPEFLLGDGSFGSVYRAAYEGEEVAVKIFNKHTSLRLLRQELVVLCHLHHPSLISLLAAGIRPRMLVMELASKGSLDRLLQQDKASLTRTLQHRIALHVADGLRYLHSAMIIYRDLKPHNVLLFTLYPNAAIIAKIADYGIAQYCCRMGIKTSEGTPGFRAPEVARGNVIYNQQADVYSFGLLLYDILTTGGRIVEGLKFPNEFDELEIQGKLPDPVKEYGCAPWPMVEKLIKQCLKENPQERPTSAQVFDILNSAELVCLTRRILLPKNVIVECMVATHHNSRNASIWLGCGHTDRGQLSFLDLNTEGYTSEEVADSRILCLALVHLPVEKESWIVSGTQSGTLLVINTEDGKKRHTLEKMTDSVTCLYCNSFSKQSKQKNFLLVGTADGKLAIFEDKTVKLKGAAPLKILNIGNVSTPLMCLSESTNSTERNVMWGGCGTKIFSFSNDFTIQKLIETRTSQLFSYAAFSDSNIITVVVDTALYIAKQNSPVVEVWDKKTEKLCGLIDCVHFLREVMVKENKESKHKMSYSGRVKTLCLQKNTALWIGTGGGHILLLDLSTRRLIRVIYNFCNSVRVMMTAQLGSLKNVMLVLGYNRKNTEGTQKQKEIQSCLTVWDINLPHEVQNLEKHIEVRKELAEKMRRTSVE

[6] = tested on: LRRK2; details: read-out: IC50 in the cellular assay; cited from earlier work

Chain of purified full‐length Strep flag LRRK2 (Q5S007 whole entry): as above

Compound	kinome selectivity [1]	IC50 [2]	brain penetration [3]	Ki [4]	LRRK2 ubiquitination (ubiquitin signal) [5]	IC50 [6]	ubiquitin signal ([5]; 5 µM MG132 (proteasome inhibitor))
CCNc1nc(Nc2cc(F)c(C(=O)N3CCOCC3)cc2OC)ncc1C(F)(F)F [GNE‐7915]	1 out of 187	17.3 ± 6.76 nM	brain penetrant	2 nM	neither the original kinase inhibitor (11) nor PROTAC (33) increase LRRK2 ubiquitination	9 nM	
CC(C)C[C@@H](C=O)NC(=O)[C@H](CC(C)C)NC(=O)[C@H](CC(C)C)NC(=O)OCc1ccccc1 [MG132] (Cbz-Leu-Leu-Leu-aldehyde)							can enhance the ubiquitin signal
CCNc1nc(Nc2cc(F)c(C(=O)NCCCCNc3cccc4c3C(=O)N(C3CCC(=O)NC3=O)C4=O)cc2OC)ncc1C(F)(F)F (stereo not drawn) [PROTAC 33]		14.7 ± 6.14 nM			unable to increase the ubiquitin signal		
